Data on six compounds can be found in US20250347685A1, “DONOR-ACCEPTOR CONJUGATED OLIGOELECTROLYTES FOR CELL LABELLING AND METHODS THEREOF” (National University of Singapore, priority 2021, published 2025).

The structures appear in SMILES notation.

Data set [1] can be described thus: Dynamic light scattering of liposome size and uniformity after COE addition. In kind it is physicochemical. As to conditions: 10 μM COE into 1 mg/mL SUV samples. As to the method:
To identify whether COE treatment will alter the morphology of liposomes (e.g., inducing the fusion or fission of liposomes), dynamic light scattering (DLS) measurements with a lipid SUV model were employed (FIG. 16). The SUVs were obtained after extrusion using a 100 nm membrane. […] After addition of 10 μM COE-BBT into the 1 mg/mL SUV samples, the Z-average size is 104.8±32.65 nm with a PDI of 0.054.

The nature of data set [2]: COE intercalation into lipid bilayer of SUVs, emission measured with a fluorimeter. The format is physicochemical. As to conditions: in PBS. The protocol:
Liposomes were prepared using the protocol as follows. Phospholipids (ex. POPC, POPE, and POPG) in chloroform solution were mixed to a proper molar ratio and dried under a gentle stream of nitrogen. The dried lipids were further desiccated in a vacuum overnight to obtain a thin lipid film. For preparing small unilamellar vesicles (SUVs), rehydration of the dried film was carried out by adding phosphate buffered saline (PBS) to a concentration of 5 mg mL-1, followed by incubation at 35° C. for 2 h under constant stirring at ˜300 rpm. Then, the vesicles were extruded using a 100 nm membrane at 45° C. 21 times to obtain SUV samples. Vesicles were kept at 4° C. until further use.
When mixing the SUVs with COE-BT, the COE will intercalate into the lipid bilayers. This is spontaneously driven by the electrostatic and hydrophobic interactions between the COEs and the lipids. As a result, a significant emission enhancement is observed. For example, relative to the COE-BT solution, the emission intensity of the SUV and COE-BT complexes increases more than 400 times between 600 to 630 nm. […] By adjusting different chemical structures, the COEs can achieve different emission wavelengths, ranging from “green”, “red”, to even “infrared” (FIGS. 14 & 15). The various color choices confer COE dyes with high compatibility in using multiple dyes concurrently.

The next data set deals with SW480 exosomes. Briefly: NanoAnalyzer (NanoFCM) flow analysis of dye-labelled SW480 exosomes and dye only controls. As to conditions: for % Positive for dye: after purifying excess dyes using ultracentrifugation; for Number of particle counts, positive / Number of particle counts, total: dye only controls. The protocol: In another example, exosomes isolated from SW480 colon cancer cell lines and purified using size exclusion chromatography were kindly provided by NanoFCM (UK). The labelling and flow cytometry analysis were also carried out by the trained technicians at NanoFCM (UK). […] The mixture was left to incubate at room temperature for 30 min and then diluted 100 times using PBS before analysis on the NanoAnalyzer (NanoFCM). Detection of the exosomes was carried out on the small threshold settings (68-155 S16M-Exo) and analysis of the labelled population was done on the PC5 channel (Ex488/Em670). Dye control samples were prepared by replacing the 9 μL exosome solution with PBS, followed by the same steps as the exosome samples for flow analysis. The results were validated through at least two replicates. In a separate experiment, the labelled exosomes were also purified of excess dyes using standard ultracentrifugation methods before analyzing as per described above.

Another data set deals with HCT 116 Exosomes. Briefly: Flow cytometry of exosomes labelled with COE compound. The protocol: Exosome were prepared via the following protocol: Exosomes were purchased from ATCC, aliquoted and stored at −80° C. A single aliquot was removed from −80° C. and placed on ice. Exosomes were diluted 10 times in cell culture grade PBS. 8 μL of the exosome suspension was mixed with between […] of COE compound. This was placed on ice for 10-minutes before being diluted 100 times in PBS to an approximate final concentration of 6×10^6 particles/mL of exosomes and 25-1 nM of COE.
Samples were briefly vortexed and used for flow cytometry. Flow cytometry measurements were obtained by measuring the side scattering on the violet laser (x-axis) and by measuring fluorescent intensity (y-axis: λexcitation=405, 488 nm λemission=525, 690 nm). […] Using the COE compound, the exosomes can be stained with a low concentration of dye and can be used directly without additional purification.
For orientation: In flow cytometry, cells or beads pass a laser one at a time.

The test system of the next data set is RBCs. As to the kind of experiment: Flow cytometry of COE-stained and unstained red blood cells mixed at various ratios. The format is cell-based, Bovine. As to the method: RBCs (isolated from Bovine whole blood, Innovative Research, Inc.) were diluted 10 times from stock into PBS and centrifuged at 3,000 RPM for 5 minutes. The supernatant was removed, and the pellet was resuspended in PBS. This was repeated for a total of 3 times. The final pellet was resuspended into PBS to be 1% by volume. […] COE compound was added to the RBC suspension and was allowed to incubate for 20 min at RT. The RBC COE compound mixture was then centrifuged again at 3,000 RPM for 5 min. The supernatant was removed and the pellet resuspended in fresh PBS. COE compound stained and unstained RBCs were respectively mixed at various ratios by volume of 0:5, 1:4, 2:3, 3:2, 4:1 and 5:0. The resulting RBC mixtures were diluted 100 times in PBS for flow cytometry experiments.

In a further data set the test system is Red blood cells. As to the kind of experiment: Flow cytometry of red blood cells from donor's blood labelled with dye. In kind it is cell-based. As to the method:
Red blood cells were obtained from donor's blood after removing the plasma via centrifugation. The RBC were either used fresh or stored for 22 days. […] The cells were incubated with the dyes for 10 min before centrifuging down at 700 g for 3 min to remove free dyes. The labelled cell pellet was then resuspended in 1 mL of PBS. The cells were then diluted 10× further in PBS before imaging on the 8-well ibidi chamber slides, and analysing for size and fluorescence on the flow cytometry (Cytoflex).

`C[N+](C)(C)CCCCCCOc1cc(/C=C/c2ccc(-c3ccc(-c4c5c(c(-c6ccc(-c7ccc(/C=C/c8cc(OCCCCCC[N+](C)(C)C)c(OCCCCCC[N+](C)(C)C)c(OCCCCCC[N+](C)(C)C)c8)cc7)s6)c6nsnc46)N=S=N5)s3)cc2)cc(OCCCCCC[N+](C)(C)C)c1OCCCCCC[N+](C)(C)C` [COE-BBT]: in data set [1], the “PDI of SUVs after COE addition” value is 0.054 and the “Z-average size of SUVs after COE addition” value turned out to be 104.8±32.65 nm. Also, the “emission enhancement after mixing with SUVs (in words)” value in data set [2] is recorded as “same phenomenon is seen”.
As for `C[N+](C)(C)CCCCCCOc1cc(/C=C/c2ccc(-c3ccc(-c4ccc(-c5ccc(-c6ccc(/C=C/c7cc(OCCCCCC[N+](C)(C)C)c(OCCCCCC[N+](C)(C)C)c(OCCCCCC[N+](C)(C)C)c7)cc6)s5)c5nonc45)s3)cc2)cc(OCCCCCC[N+](C)(C)C)c1OCCCCCC[N+](C)(C)C.[Br-].[Br-].[Br-].[Br-].[Br-].[Br-]` [COE-BO], in the data set with SW480 exosomes (10 uM), the “% Positive for dye” value was determined as 43.10%; the “Number of particle counts, positive” value is on record as 2; the “Number of particle counts, total” value came to 181. The “% Positive for dye” value with SW480 exosomes (20 uM) turned out to be 47.60%. Also, the “Percentage + (positive events)” value with SW480 exosomes (labelled SW480 exosomes, 10 uM, N = 2) is 66.55%.
For `C[N+](C)(C)CCCCCCOc1cc(/C=C/c2ccc(-c3ccc(-c4ccc(-c5ccc(-c6ccc(/C=C/c7cc(OCCCCCC[N+](C)(C)C)c(OCCCCCC[N+](C)(C)C)c(OCCCCCC[N+](C)(C)C)c7)cc6)s5)cc4)s3)cc2)cc(OCCCCCC[N+](C)(C)C)c1OCCCCCC[N+](C)(C)C.[I-].[I-].[I-].[I-].[I-].[I-]` [COE-Ben], in the data set on HCT 116 Exosomes (Exosome + COE), the “% of events in Area of Interest” value is 54.69%, the “All Events/μL” value was 6071.19 Events/μL and the “Area of Interest Events/μL” value is listed as 3314.72 Events/μL. In the data set on HCT 116 Exosomes (dye only, no exosomes), the “% of events in Area of Interest” value is given as 6.72%, the “All Events/μL” value was found to be 1480.33 Events/μL and the “Area of Interest Events/μL” value came out at 99.48 Events/μL.
In the case of `C[N+](C)(C)CCCCCCOc1cc(/C=C/c2ccc(-c3ccc(-c4ccc(-c5ccc(-c6ccc(/C=C/c7cc(OCCCCCC[N+](C)(C)C)c(OCCCCCC[N+](C)(C)C)c(OCCCCCC[N+](C)(C)C)c7)cc6)cc5)cc4)cc3)cc2)cc(OCCCCCC[N+](C)(C)C)c1OCCCCCC[N+](C)(C)C.[I-].[I-].[I-].[I-].[I-].[I-]` [COE-Quin], in the data set on HCT 116 Exosomes (Exosome + COE), the “% of events in Area of Interest” value was determined as 63.71%, the “All Events/μL” value came out at 6088.97 Events/μL and the “Area of Interest Events/μL” value amounted to 3878.99 Events/μL. In the data set on HCT 116 Exosomes (dye only, no exosomes), the “% of events in Area of Interest” value is recorded as 7.98%, the “All Events/μL” value turned out to be 1438.47 Events/μL and the “Area of Interest Events/μL” value is recorded as 114.78 Events/μL.
In the case of `C[N+](C)(C)CCCCCCOc1cc(/C=C/c2ccc(/C=C/c3ccc(/C=C/c4ccc(/C=C/c5ccc(/C=C/c6cc(OCCCCCC[N+](C)(C)C)c(OCCCCCC[N+](C)(C)C)c(OCCCCCC[N+](C)(C)C)c6)cc5)cc4)cc3)cc2)cc(OCCCCCC[N+](C)(C)C)c1OCCCCCC[N+](C)(C)C.[I-].[I-].[I-].[I-].[I-].[I-]` [COE-S6], the “% of events in Area of Interest” value in the data set with HCT 116 Exosomes (Exosome + COE) was found to be 63.67%; with HCT 116 Exosomes (dye only, no exosomes), 1.41%. For the same compound, the “All Events/μL” value worked out at 5113.31 Events/μL with HCT 116 Exosomes (Exosome + COE) and 2909.37 Events/μL with HCT 116 Exosomes (dye only, no exosomes). Moreover, the “Area of Interest Events/μL” value was 3255.41 Events/μL in the data set on HCT 116 Exosomes (Exosome + COE) and 41.08 Events/μL in the data set with HCT 116 Exosomes (dye only, no exosomes). Besides, the “RBC + COE-S6 Events/μL” value in the data set with RBCs (stained to unstained RBCs 1:4) is listed as 207.2 Events/μL; with RBCs (stained to unstained RBCs 2:3) it was 312.27 Events/μL; in the data set on RBCs (stained to unstained RBCs 3:2) it was 767.09 Events/μL; with RBCs (stained to unstained RBCs 4:1), 1039.71 Events/μL; with RBCs (stained to unstained RBCs 5:0), 450.48 Events/μL. Moreover, the “RBC Events/μL” value is reported as 891.58 Events/μL in the data set on RBCs (stained to unstained RBCs 1:4); 812.03 Events/μL in the data set on RBCs (stained to unstained RBCs 2:3); 470.71 Events/μL in the data set on RBCs (stained to unstained RBCs 3:2); 225.64 Events/μL in the data set on RBCs (stained to unstained RBCs 4:1); 2.98 Events/μL in the data set on RBCs (stained to unstained RBCs 5:0). Moreover, the “total events/μL” value came to 1098 events/μL with RBCs (stained to unstained RBCs 1:4); 1124 events/μL in the data set on RBCs (stained to unstained RBCs 2:3); 1237 events/μL with RBCs (stained to unstained RBCs 3:2); 1265 events/μL with RBCs (stained to unstained RBCs 4:1); 453 events/μL in the data set on RBCs (stained to unstained RBCs 5:0). The “artifact to the morphology of the RBC (FSC/SSC dot plots)” value in the data set on Red blood cells (1 μM COE-S6) is listed as “does not introduce an artifact”. For the same compound, the “change in fluorescence of RBCs labelled with increasing dye concentrations” value in the data set with Red blood cells (histograms, FIG. 35 d-e) is on record as “increase in fluorescence”. For the same compound, the “homogeneity of RBC labelling (coefficient of variance of histogram data)” value with Red blood cells (versus Cell Mask Deep Red) is “more homogeneous and uniform”.
`CCCCCCCCCCCCCCCCCCCCCC[N+]1=C(/C=C/C=C2/N(CCCCCCCCCCCCCC)c3ccccc3C2(C)C)C(C)(C)c2ccccc21.[I-]` [PKH-26, reference compound]: in the data set with SW480 exosomes (10 uM), the “% Positive for dye” value stood at 22.00%; the “Number of particle counts, positive” value is 636; the “Number of particle counts, total” value is given as 637. Moreover, the “% Positive for dye” value in the data set with SW480 exosomes (20 uM) amounted to 19.90%.
